# Measured values: patent US20170333591A9, “ABSORBENT ARTICLE COMPRISING MALODOR REDUCTION COMPOSITIONS” (The Procter & Gamble Company, priority 2014, published 2017)
# Assay: Log of liquid dish neat product liquid-air partition coefficient
# Assay type: physicochemical
# Settings: for Log of liquid dish neat product liquid-air partition coefficient (Comment Code): code letters K/L of the Comment Code
SMILES,Log of liquid dish neat product liquid-air partition coefficient (Comment Code),Comment Code: Log of liquid dish neat product liquid-air partition coefficient
C=C1C=CC(C(C)CCC=C(C)C)CC1 (centres unmarked) [Material 614],K (Log of liquid dish neat product liquid-air partition coefficient greater than or equal to 7),
C=C(C)C1CCC2(C)CCCC(=C)C2C1 (centres unmarked) [Material 615],K (Log of liquid dish neat product liquid-air partition coefficient greater than or equal to 7),
C=C1C2CCC(C2)C1(C)CCC=C(C)CO (centres unmarked) [Material 616],K (Log of liquid dish neat product liquid-air partition coefficient greater than or equal to 7),K (Log of liquid dish neat product liquid-air partition coefficient greater than or equal to 7)
CC1=C2CCC3(C)OC3C2C(C)(C)CCC1 (centres unmarked) [Material 624],K (Log of liquid dish neat product liquid-air partition coefficient greater than or equal to 7),K (Log of liquid dish neat product liquid-air partition coefficient greater than or equal to 7)
COC(Cc1ccccc1)OC [Material 627],K (Log of liquid dish neat product liquid-air partition coefficient greater than or equal to 7),K (Log of liquid dish neat product liquid-air partition coefficient greater than or equal to 7)
C=CC(=C)CCC=C(C)CCC=C(C)C [Material 628],K (Log of liquid dish neat product liquid-air partition coefficient greater than or equal to 7),
CC(=O)C=CC12OC1(C)CCCC2(C)C (centres unmarked) [Material 636],K (Log of liquid dish neat product liquid-air partition coefficient greater than or equal to 7),
CC(C)(O)CCc1ccccc1 [Material 639],K (Log of liquid dish neat product liquid-air partition coefficient greater than or equal to 7),
CC(=O)CCc1ccccc1 [Material 640],,K (Log of liquid dish neat product liquid-air partition coefficient greater than or equal to 7)
CC(C)CC(=O)OCc1ccccc1 [Material 645],,K (Log of liquid dish neat product liquid-air partition coefficient greater than or equal to 7)
CC(C)C(=O)OCc1ccccc1 [Material 647],,K (Log of liquid dish neat product liquid-air partition coefficient greater than or equal to 7)
CC(C)(O)Cc1ccccc1 [Material 649],K (Log of liquid dish neat product liquid-air partition coefficient greater than or equal to 7),
CC(C)C1OCCC2(CC3CCC2(C)C3(C)C)O1 (centres unmarked) [Material 659],K (Log of liquid dish neat product liquid-air partition coefficient greater than or equal to 7),K (Log of liquid dish neat product liquid-air partition coefficient greater than or equal to 7)
CC(C)=CCCC1=CCC(C#N)CC1 (centres unmarked) [Material 660],K (Log of liquid dish neat product liquid-air partition coefficient greater than or equal to 7),
COc1ccc(COC(C)=O)cc1 [Material 664],,K (Log of liquid dish neat product liquid-air partition coefficient greater than or equal to 7)
COc1ccc(COC=O)cc1 [Material 665],,K (Log of liquid dish neat product liquid-air partition coefficient greater than or equal to 7)
CCCCCOC(=O)C=Cc1ccccc1 [Material 671],K (Log of liquid dish neat product liquid-air partition coefficient greater than or equal to 7),
CCCCCOC(=O)c1ccccc1 [Material 672],,K (Log of liquid dish neat product liquid-air partition coefficient greater than or equal to 7)
C[C@@H]1CC[C@H]2C(C)(C)[C@H]3C[C@@]12CC1OC(C)(C)OC13C (some centres unmarked) [Material 674],K (Log of liquid dish neat product liquid-air partition coefficient greater than or equal to 7),K (Log of liquid dish neat product liquid-air partition coefficient greater than or equal to 7)
CC1(O)CCC2=C(CCCC2(C)C)C1 (centres unmarked) [Material 675],K (Log of liquid dish neat product liquid-air partition coefficient greater than or equal to 7),
CC1(O)CCC2=C(CCCC2(C)C)C1 (centres unmarked) [Material 676],K (Log of liquid dish neat product liquid-air partition coefficient greater than or equal to 7),
CCC(O)COC1CCCCC1C(C)(C)C (centres unmarked) [Material 677],K (Log of liquid dish neat product liquid-air partition coefficient greater than or equal to 7),
CC1C(C)(C)C2CCC3CC(C)(C)OC3C2C1(C)C (centres unmarked) [Material 679],K (Log of liquid dish neat product liquid-air partition coefficient greater than or equal to 7),K (Log of liquid dish neat product liquid-air partition coefficient greater than or equal to 7)

SMILES,Log of liquid dish neat product liquid-air partition coefficient (Comment Code),Comment Code: Log of liquid dish neat product liquid-air partition coefficient
CC1C(C)(C)C2CCC3CC(C)(C)OC3C2C1(C)C (centres unmarked) [Material 680],K (Log of liquid dish neat product liquid-air partition coefficient greater than or equal to 7),K (Log of liquid dish neat product liquid-air partition coefficient greater than or equal to 7)
CC(C)=C1CCC2=CC(=O)CC(C)C2(C)C1 (centres unmarked) [Material 684],K (Log of liquid dish neat product liquid-air partition coefficient greater than or equal to 7),K (Log of liquid dish neat product liquid-air partition coefficient greater than or equal to 7)
CCC(=O)OC(C)(C)C1CC=C(C)CC1 (centres unmarked) [Material 686],K (Log of liquid dish neat product liquid-air partition coefficient greater than or equal to 7),
CC(=O)OC(C)(C)C1CC=C(C)CC1 (centres unmarked) [Material 687],,K (Log of liquid dish neat product liquid-air partition coefficient greater than or equal to 7)
C=CC(C)=CCC=C(C)CCC=C(C)C=O [Material 691],K (Log of liquid dish neat product liquid-air partition coefficient greater than or equal to 7),
C=C(C)C1CCC2(C)CCC=C(C)C2C1 (centres unmarked) [Material 692],K (Log of liquid dish neat product liquid-air partition coefficient greater than or equal to 7),
CC(=CCCC1(C)C2CC3C(C2)C31C)CO (centres unmarked) [Material 694],K (Log of liquid dish neat product liquid-air partition coefficient greater than or equal to 7),K (Log of liquid dish neat product liquid-air partition coefficient greater than or equal to 7)
C=CCCC(=O)C1=CCCC(C)(C)C1 [Material 697],K (Log of liquid dish neat product liquid-air partition coefficient greater than or equal to 7),
CC(O)CCC1CCCCC1 (centres unmarked) [Material 699],,K (Log of liquid dish neat product liquid-air partition coefficient greater than or equal to 7)
CCC(=O)C=CC1C(C)=CCCC1(C)C (centres unmarked) [Material 700],K (Log of liquid dish neat product liquid-air partition coefficient greater than or equal to 7),
CC(C=O)=Cc1ccccc1 [Material 701],,K (Log of liquid dish neat product liquid-air partition coefficient greater than or equal to 7)
CC(=O)C(C)=CC1C(C)=CCCC1(C)C (centres unmarked) [Material 703],,K (Log of liquid dish neat product liquid-air partition coefficient greater than or equal to 7)
CC(=O)C=CC1C(C)=CCC(C)C1(C)C (centres unmarked) [Material 704],K (Log of liquid dish neat product liquid-air partition coefficient greater than or equal to 7),
CC1=CCCC(C)=CCC(C)(C)C=CC1 [Material 706],K (Log of liquid dish neat product liquid-air partition coefficient greater than or equal to 7),
C=C1CCCC(C)(C)C2C=C(C)CCC12 (centres unmarked) [Material 707],K (Log of liquid dish neat product liquid-air partition coefficient greater than or equal to 7),
C=CC(C)=CCC=C(C)CCC=C(C)C [Material 710],K (Log of liquid dish neat product liquid-air partition coefficient greater than or equal to 7),
CC1=CCCC2(C)CCC(C(C)(C)O)CC12 (centres unmarked) [Material 712],K (Log of liquid dish neat product liquid-air partition coefficient greater than or equal to 7),K (Log of liquid dish neat product liquid-air partition coefficient greater than or equal to 7)
CC(C)=CCCC(C)c1ccc(C)cc1 (centres unmarked) [Material 713],K (Log of liquid dish neat product liquid-air partition coefficient greater than or equal to 7),
CC1=CC2C(C(C)C)CCC(C)(O)C2CC1 (centres unmarked) [Material 716],K (Log of liquid dish neat product liquid-air partition coefficient greater than or equal to 7),
CC(C)=CCCC(C)(O)C1CC=C(C)CC1 (centres unmarked) [Material 718],K (Log of liquid dish neat product liquid-air partition coefficient greater than or equal to 7),
CC(C)=CCC=C(C)C1CC=C(C)CC1 (centres unmarked) [Material 719],K (Log of liquid dish neat product liquid-air partition coefficient greater than or equal to 7),
CC1=CCCC2(C)CCC3CC12OC3(C)C (centres unmarked) [Material 726],K (Log of liquid dish neat product liquid-air partition coefficient greater than or equal to 7),K (Log of liquid dish neat product liquid-air partition coefficient greater than or equal to 7)
